{
  "source": "patent US5965717A",
  "about": "“Organic pigments from twisted benzidines” (North Carolina State University, priority 1997, dated 1999)",
  "key": {"Salmonella": {"tested_on": "Salmonella", "settings": "cited from earlier work"}, "[1]": {"tested_on": "Salmonella typhimurium strains, TA98 and TA100", "experiment": "Ames test (Salmonella mammalian microsome mutagenicity assay), with and without rat liver S9", "assay_type": "cell-based", "settings": "presence and absence of metabolic activation (rat liver S9)", "source_text": "(§1) The most widely accepted mutagenicity screening test procedure for amines is the Salmonella mammalian microsome mutagenicity assay developed by Ames et al. (Mutat. Res., 31 (1975) 347), hereinafter referred to as the Ames test. Subsequently, a modification of the Ames test was introduced by Prival et al. (Mutat. Res., 97 (2) (1982) 103) specifically for evaluating the mutagenicity of azo compounds, hereinafter referred to as the Prival modification. For a general discussion of mutagenicity as it pertains to colored materials, see, for instance, Freeman et al., Genotoxicity of Azo Dyes: Bases and Implications, Physico-Chemical Principles of Color Chemistry, Advances in Color Chemistry Series, Vol. 4, ed. by A. T. Peters and H. S. Freeman (Blackie Academic Press: Glasgow, 1996) 254-291; Freeman et al., Dyes Pigm. 8 (6) (1987) 431-47; and Freeman et al., CHEMTECH, July (1991), 438-445.\n(§2) Mutagenicity testing of the pure derivatives of benzidine was performed using the standard Ames test, as described by Ames et al. (Mutat. Res., 31 (1975) 347). Mutagenicity testing of the various pigments was performed using the standard Ames test, and also using the Prival modification, as described by Prival et al. (Mutat. Res., 97 (2) (1982) 103).\n(§3) More particularly, two Salmonella typhimurium strains, TA98 and TA100, were employed for mutagenicity testing. All benzidine derivatives and the pigments made therefrom were evaluated in the presence and absence of metabolic activation. In the Ames test, metabolic activation was achieved using rat liver S9, whereas hamster liver S9 was employed in the Prival modification. A mutagenic response was recorded for a test compound if the number of revertant colonies counted was more than twice the number of spontaneous revertant colonies formed in the absence of the test compound. A nonmutagenic response (Ames negative or Prival negative) was recorded when the number of revertant colonies counted was less than twice the number of spontaneous revertant colonies."}, "[2]": {"tested_on": "Salmonella typhimurium strains, TA98 and TA100", "experiment": "Prival modification of the Ames test, with and without hamster liver S9", "assay_type": "cell-based", "settings": "presence and absence of metabolic activation (hamster liver S9)", "source_text": "as §1, §2, §3"}, "[3]": {"settings": "in N,N-dimethylformamide (DMF); cited from earlier work"}},
  "data": [
    {"smiles": "Nc1ccc(-c2ccc(N)c(Cl)c2)cc1Cl", "note": "[3,3'-dichlorobenzidine]", "values": [
      {"measurement": "mutagenicity in the Ames test (prior art)", "setting": "Salmonella", "value": "mutagenic"}
    ]},
    {"smiles": "COc1cc(-c2ccc(N)c(OC)c2)ccc1N", "note": "[3,3'-dimethoxybenzidine]", "values": [
      {"measurement": "mutagenicity in the Ames test (prior art)", "setting": "Salmonella", "value": "mutagenic"}
    ]},
    {"smiles": "Cc1cc(-c2ccc(N)c(C)c2)ccc1N", "note": "[3,3'-dimethylbenzidine]", "values": [
      {"measurement": "mutagenicity in the Ames test (prior art)", "setting": "Salmonella", "value": "mutagenic"}
    ]},
    {"smiles": "Cc1cc(-c2cc(C)c(N)c(C)c2)cc(C)c1N", "note": "[3,5,3',5'-tetramethylbenzidine]", "values": [
      {"measurement": "mutagenicity in the Ames test (prior art)", "setting": "Salmonella", "value": "nonmutagenic"}
    ]},
    {"smiles": "CCCOc1cc(-c2cc(OCCC)c(N=CC3C(=O)NC(=S)NC3=O)cc2C)c(C)cc1N=CC1C(=O)NC(=S)NC1=O", "note": "[Pigment 93]", "values": [
      {"measurement": "mutagenicity in the Ames test", "setting": "[1]", "value": "negative (the number of revertant colonies counted was less than twice the number of spontaneous revertant colonies)"},
      {"measurement": "mutagenicity in the Prival modification", "setting": "[2]", "value": "negative (the number of revertant colonies counted was less than twice the number of spontaneous revertant colonies)"}
    ]},
    {"smiles": "CCCOc1cc(-c2cc(OCCC)c(NN=C(C(C)=O)C(=O)Nc3ccccc3)cc2C)c(C)cc1NN=C(C(C)=O)C(=O)Nc1ccccc1", "note": "[Pigment 95]", "values": [
      {"measurement": "mutagenicity in the Ames test", "setting": "[1]", "value": "negative (the number of revertant colonies counted was less than twice the number of spontaneous revertant colonies)"},
      {"measurement": "mutagenicity in the Prival modification", "setting": "[2]", "value": "negative (the number of revertant colonies counted was less than twice the number of spontaneous revertant colonies)"}
    ]},
    {"smiles": "CCCOc1cc(-c2cc(OCCC)c(NN=C(C(C)=O)C(=O)Nc3ccccc3OC)cc2OC)c(OC)cc1NN=C(C(C)=O)C(=O)Nc1ccccc1OC", "note": "[Pigment 98]", "values": [
      {"measurement": "mutagenicity in the Ames test", "setting": "[1]", "value": "negative (the number of revertant colonies counted was less than twice the number of spontaneous revertant colonies)"},
      {"measurement": "mutagenicity in the Prival modification", "setting": "[2]", "value": "negative (the number of revertant colonies counted was less than twice the number of spontaneous revertant colonies)"}
    ]},
    {"smiles": "CCCOc1cc(-c2cc(OCCC)c(NN=C(C(C)=O)C(=O)Nc3ccccc3OC)cc2Cl)c(Cl)cc1NN=C(C(C)=O)C(=O)Nc1ccccc1OC", "note": "[Pigment 107]", "values": [
      {"measurement": "mutagenicity in the Ames test", "setting": "[1]", "value": "negative (the number of revertant colonies counted was less than twice the number of spontaneous revertant colonies)"},
      {"measurement": "mutagenicity in the Prival modification", "setting": "[2]", "value": "negative (the number of revertant colonies counted was less than twice the number of spontaneous revertant colonies)"}
    ]},
    {"smiles": "CCCOc1cc(-c2cc(OCCC)c(NN=C3C(=O)N(c4ccccc4)N=C3C)cc2C)c(C)cc1NN=C1C(=O)N(c2ccccc2)N=C1C", "note": "[Pigment 108]", "values": [
      {"measurement": "mutagenicity in the Ames test", "setting": "[1]", "value": "negative (the number of revertant colonies counted was less than twice the number of spontaneous revertant colonies)"},
      {"measurement": "mutagenicity in the Prival modification", "setting": "[2]", "value": "negative (the number of revertant colonies counted was less than twice the number of spontaneous revertant colonies)"}
    ]},
    {"smiles": "CCCOc1cc(-c2cc(OCCC)c(NN=C(C(C)=O)C(=O)Nc3ccc4[nH]c(=O)[nH]c4c3)cc2C)c(C)cc1NN=C(C(C)=O)C(=O)Nc1ccc2[nH]c(=O)[nH]c2c1", "note": "[Pigment 113]", "values": [
      {"measurement": "mutagenicity in the Ames test", "setting": "[1]", "value": "negative (the number of revertant colonies counted was less than twice the number of spontaneous revertant colonies)"},
      {"measurement": "mutagenicity in the Prival modification", "setting": "[2]", "value": "negative (the number of revertant colonies counted was less than twice the number of spontaneous revertant colonies)"}
    ]},
    {"smiles": "COc1cc(-c2ccc(NN=C(C(C)=O)C(=O)Nc3ccccc3)c(OC)c2)ccc1NN=C(C(C)=O)C(=O)Nc1ccccc1", "note": "[compound 1]", "values": [
      {"measurement": "λmax", "setting": "[3]", "value": 445, "unit": "nm"}
    ]},
    {"smiles": "COc1ccccc1NN=C(C(C)=O)C(=O)Nc1ccccc1", "note": "[compound 2]", "values": [
      {"measurement": "λmax", "setting": "[3]", "value": 392, "unit": "nm"}
    ]},
    {"smiles": "CCCOc1cc(-c2cc(OCCC)c(N)cc2C)c(C)cc1N", "note": "[compound 12, 2,2'-dimethyl-5,5'-dipropoxybenzidine]", "values": [
      {"measurement": "mutagenicity in the Ames test", "setting": "[1]", "value": "Ames negative (the number of revertant colonies counted was less than twice the number of spontaneous revertant colonies)"}
    ]},
    {"smiles": "CCCOc1cc(-c2cc(OCCC)c(N)cc2OC)c(OC)cc1N", "note": "[compound 26, 2,2'-dimethoxy-5,5'-dipropoxybenzidine]", "values": [
      {"measurement": "mutagenicity in the Ames test", "setting": "[1]", "value": "Ames negative (the number of revertant colonies counted was less than twice the number of spontaneous revertant colonies)"}
    ]}
  ]
}
